Measurements reported in US20040265847A1, “Method for treating Alzheimer's disease” (priority 1991, published 2004).

Legend:
[1] = target: T1, APP purified from rat brain (Rattus norvegicus, UniProt P08592); experiment: heparin binding to APP in a Biosensor system
T1 construct: from tissue; host or cells: rat brain
Method: The effect of Zn^2+ in modulating heparin binding to APP was also studied in a Biosensor system. […] This effect was most pronounced and most specific for Zn^2+, as opposed to the absence of divalent cations or the presence of Ca^2+, Mg^2+ or Co^2+, and was most evident when the heparin:APP ratio was low. […] Zn^2+ at 50 nM promoted a =170% increase in heparin binding, the effect saturating at 70 μM.

[2] = test system: human brain membrane-derived APP; experiment: trypsin digestion of human brain membrane-derived APP, Western blot with 22C11; assay type: biochemical
Source text: The proteolytic activity of trypsin (Boehringer, Mannheim) was studied to determine whether it was modulated by a range of doses of heparin (Sigma) and ZnCl2. […] Western blots for APP using the APP binding monoclonal antibody 22C11 were used to monitor the progression of the proteolytic reaction and to detect breakdown products.

APP = experiment: Effect of zinc loading upon rat brain APP; assay type: in vivo; conditions: 120 mg/kg injected daily for four days
Method: 16 week old Sprauge-Dawley male rats were injected daily for four days with 120 mg/kg ZnCl2 solution. The animals were then anaesthetized, bled by intracardiac puncture and their brains removed, homogenized and separated into membrane and soluble fractions following ultracentrifugation.

APP-degrading protease = experiment: Assay of APP-degrading protease (Zn^2+-enhanced degradation of plasma 130 kDa APP); assay type: biochemical, human; conditions: heparin-Sepharose eluates, 37° C.
[3] = test system: human brain 130/110 kDa APP; experiment: ^65Zn binding to human brain 130/110 kDa APP (time course, competition, Scatchard)
Source text: FIG. 4 is a graphical representation showing a time course analysis of ^65Zn binding to human brain 130/110 kDa APP. Amyloid protein precursor (APP) was purified according to the method in Moir et al. (1992). The preparation of purified 130 and 110 kDa APP was derived from human brain membrane extracts and contained the full-length precursor with carboxyl terminus intact but lacked the 17 residue signal peptide. The 130 and 110 kDa proteins were apparent in equal ratios on silver staining following polyacrylamide gel electrophoresis and were the only bands visible. The identity of these two proteins was confirmed by Western blots with monoclonal antibody 22C11 (which recognises an amino terminal epitope on APP), and by amino terminal sequencing. The protein concentration of the APP preparation was determined by amino acid analysis. Aliquots of APP (90 ng, =1.1 pmole, assuming the average amino acid formula weight of APP is =80 kDa) were incubated at 20° C. for the times indicated. Incubations (50 μl) were performed in 150 mM NaCl, 50 mM Tris-Hcl, pH 7.4 in the presence of 10^6 cpm of ^65Zn (175 nM). The incubation solution was then applied to a 1.1 ml bed volume Sephadex G25 (Pharmacia, Uppsala, Sweden) column pre-equilibrated with 150 mM NaCl, 50 mM Tris-HCl, pH 7.4 and allowed to settle before being desalted with 645 μl of the Equilibration buffer. […] The desalted protein was collected directly into counting tubes containing 10 ml aqueous counting scintillant. Less than two minutes was required to complete the desalting. The amount of ^65Zn bound to desalted APP was determined by counting the collected sample in a beta-counter set to the broadest channel. Counting was determined to be 51% efficient. The values shown are means±SD of n≧3 readings.
FIG. 5 is a graphical representation showing a competition analysis of ^65Zn binding to human brain 130/110 kDa APP. Aliquots of APP were incubated for 30 minutes with ^65Zn as in FIG. 4. The binding of the labelled Zn^2+ to APP was subjected to competition with unlabelled Zn^2+ in the form of the chloride salt. Data shown indicate the competition curves generated at pH 6.4 and 7.4. The binding of Zn^2+ to APP deteriorated at the lower pH (=45% of Bmax, pH 7.4). The values are means±SEM of n≧3 readings. The curves illustrated are typical of three experiments.
FIG. 6 is a graphical representation depicting a Scatchard analysis of ^65Zn binding to human brain 130/110 kDa APP.
Binding analysis was performed as follows: Aliquots of APP (90 ng, =1.1 pmole, assuming the average amino acid formula mass of APP is =80 kDa) were incubated at 20° C. Incubations (50 μl) were performed in 150 mM NaCl, 50 mM Tris-HCl, pH 7.4 in the presence of 10^6 CPM of ^65Zn (175 nM). The incubation solution was then applied to a 1.1 ml bed volume Sephadex G25 (Pharmacia, Uppsala, Sweden) column pre-equilibrated with 150 mM NaCl, 50 mM Tris-HCl, pH 7.4 and allowed to settle before being desalted with 645 μl of the equilibration buffer. […] The deslated protein was collected directly into counting tubes containing 10 ml aqueous counting scintillant (ACSII, Amersham). Less than two minutes was required to complete the desalting. The amount of ^65Zn bound to desalted APP was determined by counting the collected sample in a beta-counter set to the broadest channel. Counting was determined to be 51% efficient. The binding of the labelled Zn^2+ to APP was subjected to competition with unlabelled Zn^2+ and other metal chloride salts.

T1 sequence (P08592 18-770): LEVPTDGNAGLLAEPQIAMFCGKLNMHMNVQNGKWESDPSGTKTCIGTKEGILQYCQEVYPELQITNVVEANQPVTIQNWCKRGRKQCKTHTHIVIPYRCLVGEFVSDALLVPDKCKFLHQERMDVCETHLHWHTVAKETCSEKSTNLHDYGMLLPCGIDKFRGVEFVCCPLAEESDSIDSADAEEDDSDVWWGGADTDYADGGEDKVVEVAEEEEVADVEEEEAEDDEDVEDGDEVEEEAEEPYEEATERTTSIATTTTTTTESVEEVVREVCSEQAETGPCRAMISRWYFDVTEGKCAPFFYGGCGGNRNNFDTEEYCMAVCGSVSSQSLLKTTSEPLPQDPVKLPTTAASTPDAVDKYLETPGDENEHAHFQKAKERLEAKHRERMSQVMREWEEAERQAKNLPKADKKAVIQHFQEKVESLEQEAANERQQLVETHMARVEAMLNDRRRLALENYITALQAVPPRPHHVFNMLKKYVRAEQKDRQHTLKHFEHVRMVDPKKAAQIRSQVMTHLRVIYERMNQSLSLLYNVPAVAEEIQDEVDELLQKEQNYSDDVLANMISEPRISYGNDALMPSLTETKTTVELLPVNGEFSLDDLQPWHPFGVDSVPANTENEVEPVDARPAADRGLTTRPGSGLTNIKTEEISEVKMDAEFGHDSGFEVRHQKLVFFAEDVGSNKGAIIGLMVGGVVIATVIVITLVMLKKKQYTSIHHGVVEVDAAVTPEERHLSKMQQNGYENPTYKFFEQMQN

## [Cl-].[Cl-].[Zn+2] [Zn^2+, ZnCl2]
[1]
  concentration at which effect on heparin binding saturates: 70 µM
[1]; 100 μM
  effect on heparin binding to APP: strongly promote heparin binding to APP
[1]; Zn^2+ at 50 nM
  increase in heparin binding to rat brain APP: 170%
[2]; with heparin (1 μM)
  Zn^2+ concentration that completely abolished the protective effect of heparin: above 1 μM
[2]; without heparin, Zn^2+ up to 100 μM, EDTA 1 mM
  effect on rate of APP proteolysis by trypsin: had no effect
APP
  new APP band in plasma: development of a novel 80 kDa band in plasma
APP; plasma and brain preparations vs litter-mates
  increase in the amounts of all forms of APP: 80%
APP-degrading protease
  effect on proteolysis of plasma APP: Proteolysis was accelerated
[3]; at 1 minute
  Zn bound to APP, % of Bmax: 30%
[3]; at 5 minutes
  Zn bound to APP, % of Bmax: 30%
[3]; pH 6.4
  binding of Zn^2+ to APP at the lower pH, % of Bmax at pH 7.4: 45%
[3]; unlabelled metal ion at 20 μM
  ^65Zn label competed off APP (of Bmax): > 97%
